This passage reports IC50 results from patent US8772480B2, “Inhibitors of PI3 kinase and/or mTOR” (priority 2009, dated 2014).

Some results are limits rather than exact numbers.

One assay relates to phosphorylation of Akt at Serine 473 in U87 MG cells. Nature of the assay: cells. The settings on record: Homo sapiens, U-87 MG, 2 h, read-out: U87Cell IC50.
For `COc1ccc(NCc2cnc(Nc3ccc(OC)nc3)c(-c3nc(C)nc4[nH]cnc34)c2)cc1` [Example 77, 5-((4-methoxyphenylamino)methyl)-N-(6-methoxypyridin-3-yl)-3-(2-methyl-9H-purin-6-yl)pyridin-2-amine], the IC50 (usually the concentration needed to halve the response being measured) is 167 nM. As to `Cc1nc(N)nc(-c2cccnc2Nc2cnc(Cl)c(N)c2)n1` [Example 265, N5-(3-(4-Amino-6-Methyl-1,3,5-Triazin-2-yl)Pyridin-2-yl)-2-Chloropyridine-3,5-Diamine], the half-inhibitory concentration (IC50) was 349 nM.

Take `Cc1nc(N)nc(-c2cccnc2Nc2cnc(Cl)c(NS(=O)(=O)N3CCOCC3)c2)n1` [Example 366, N-(5-(3-(4-Amino-6-Methyl-1,3,5-Triazin-2-yl)Pyridin-2-Ylamino)-2-Chloropyridin-3-yl)Morpholine-4-Sulfonamide]: the IC50 worked out at 40 nM. In the case of `Cc1nc(N)nc(-c2cccnc2Nc2cnc(Cl)c(NS(=O)(=O)N(C)C(C)C)c2)n1` [Example 367, N-(5-(3-(4-Amino-6-Methyl-1,3,5-Triazin-2-yl)Pyridin-2-Ylamino)-2-Chloropyridin-3-yl)-N-Isopropyl-N-Methylaminosulfamide], the IC50 worked out at 246 nM.

The same assay, now with this note: Homo sapiens, U-87 MG, 2 h, read-out: U87Cell IC50, pAkt (Ser 473), U87 MG cells, two hours with compound.
As to `CCOc1ccc(Nc2ncccc2-c2nc(C)nc(N)n2)cn1` [Example 49, 4-(2-(6-ethoxypyridin-3-ylamino)pyridin-3-yl)-6-methyl-1,3,5-triazin-2-amine], the IC50 is 1150 nM. Take `COc1cccc(NCc2cnc(Nc3ccc(OC)nc3)c(-c3nc(C)nc4[nH]cnc34)c2)c1` [Example 78, 5-((3-methoxyphenylamino)methyl)-N-(6-methoxypyridin-3-yl)-3-(2-methyl-9H-purin-6-yl)pyridin-2-amine]: the IC50 is 479 nM. On to `COc1ccc(Nc2ncc(CNc3cccnc3)cc2-c2nc(C)nc3[nH]cnc23)cn1` [Example 79, N-(6-methoxypyridin-3-yl)-3-(2-methyl-9H-purin-6-yl)-5-((pyridin-3-ylamino)methyl)pyridin-2-amine], for which the IC50 worked out at 72 nM. For the compound `COc1cccc(Nc2cnc(Nc3ccc(OC)nc3)c(-c3nc(C)nc4[nH]cnc34)c2)c1` [Example 96, N5-(3-methoxyphenyl)-N2-(6-methoxypyridin-3-yl)-3-(2-methyl-9H-purin-6-yl)pyridine-2,5-diamine], the IC50 is 412 nM. For `CC(=O)Nc1ccc(Nc2ncccc2-c2nc(C)nc3[nH]cnc23)cc1` [Example 102, N-(4-(3-(2-methyl-9H-purin-6-yl)pyridin-2-ylamino)phenyl)acetamide], the IC50 was 88 nM.

Regarding `Cc1nc(-c2cc(Cc3ccc(S(C)(=O)=O)cc3)cnc2Nc2cccc3[nH]ncc23)c2nc[nH]c2n1` [Example 104, N-(3-(2-methyl-9H-purin-6-yl)-5-(4-(methylsulfonyl)benzyl)pyridin-2-yl)-1H-indazol-4-amine], the IC50 was 130 nM. For `CC(=O)Nc1ccc(Nc2ncc(Cc3ccc(S(C)(=O)=O)cc3)cc2-c2nc(C)nc3[nH]cnc23)cn1` [Example 105, N-(5-(3-(2-methyl-9H-purin-6-yl)-5-(4-(methylsulfonyl)benzyl)pyridin-2-ylamino)pyridin-2-yl)acetamide], the IC50 was 159 nM.

With `CC(=O)Nc1cc(-c2cnccc2Nc2cccc3[nH]ccc23)nc(C)n1` [Example 108, N-(6-(4-(1H-indol-4-ylamino)pyridin-3-yl)-2-methylpyrimidin-4-yl)acetamide], the IC50 worked out at 1220 nM. Turning to `COc1ccc(Nc2nc(-c3ccncc3)ncc2-c2nc(C)nc(N)n2)cn1` [Example 124, 4-(4-(6-methoxypyridin-3-ylamino)-2-(pyridin-4-yl)pyrimidin-5-yl)-6-methyl-1,3,5-triazin-2-amine], the IC50 was greater than 10000 nM.

Take `COc1ccc(Nc2nc(NC3CCCC3)ncc2-c2nc(C)nc(N)n2)cn1` [Example 126, 5-(4-amino-6-methyl-1,3,5-triazin-2-yl)-N2-cyclopentyl-N4-(6-methoxypyridin-3-yl)pyrimidine-2,4-diamine]: the IC50 was 240 nM.

In the case of `COc1ccc(Nc2ncc(Cl)cc2-c2nc(C)nc3[nH]cnc23)cn1` [Example 127, 5-chloro-N-(6-methoxypyridin-3-yl)-3-(2-methyl-9H-purin-6-yl)pyridin-2-amine], the IC50 turned out to be 249 nM. With `COc1ncc(Nc2ncc(C(C)N3CCN(S(C)(=O)=O)CC3)cc2-c2nc(C)nc(N)n2)cc1F` (stereo not drawn) [Example 143, 4-(2-(5-fluoro-6-methoxypyridin-3-ylamino)-5-(1-(4-(methylsulfonyl)piperazin-1-yl)ethyl)pyridin-3-yl)-6-methyl-1,3,5-triazin-2-amine], the IC50 came out at 6 nM.

For `COc1ncc(Nc2ncc([C@@H](C)N3CCN(S(C)(=O)=O)CC3)cc2-c2nc(C)nc(N)n2)cc1F` [Example 148, (R)-4-(2-(5-Fluoro-6-Methoxypyridin-3-Ylamino)-5-(1-(4-(Methylsulfonyl)Piperazin-1-yl)Ethyl)Pyridin-3-yl)-6-Methyl-1,3,5-Triazin-2-Amine], the IC50 is 5 nM. On to `COc1ncc(Nc2ncc(C(=O)N3CCN(S(C)(=O)=O)CC3)cc2-c2nc(C)nc(N)n2)cc1F` [Example 152, 4-(2-((5-Fluoro-6-Methoxy-3-Pyridinyl)Amino)-5-((4-(Methylsulfonyl)-1-Piperazinyl)Carbonyl)-3-Pyridinyl)-6-Methyl-1,3,5-Triazin-2-Amine], for which the IC50 worked out at 37 nM.

In the case of `Cc1nc(N)nc(-c2cccnc2Nc2ccc3oc(C)nc3c2)n1` [Example 165, N-(3-(4-Amino-6-Methyl-1,3,5-Triazin-2-yl)Pyridin-2-yl)-2-Methylbenzo[D]Oxazol-5-Amine], the IC50 was 2590 nM. Turning to `COc1cc(Nc2ncccc2-c2nc(C)nc(N)n2)ccc1F` [Example 167, 4-(2-(4-Fluoro-3-Methoxyphenylamino)Pyridin-3-yl)-6-Methyl-1,3,5-Triazin-2-Amine], the IC50 was determined as 1160 nM. Take `Cc1nc(-c2cccnc2Nc2ccc(NC(=O)C3CC3)cc2)c2nc[nH]c2n1` [Example 182, N-(4-(3-(2-Methyl-9H-Purin-6-yl)Pyridin-2-Ylamino)Phenyl)Cyclopropanecarboxamide]: the IC50 came out at 92 nM. Take `COc1ncc(Nc2ncc(F)cc2-c2nc(C)nc(N)n2)cc1F` [Example 185, 4-(5-Fluoro-2-(5-Fluoro-6-Methoxypyridin-3-Ylamino)Pyridin-3-yl)-6-Methyl-1,3,5-Triazin-2-Amine]: the IC50 was found to be 199 nM. With `Cc1nc(N)nc(-c2cccnc2Nc2ccc(NC(=O)Nc3ccccc3)nc2)n1` [Example 190, 1-(5-(3-(4-Amino-6-Methyl-1,3,5-Triazin-2-yl)Pyridin-2-Ylamino)Pyridin-2-yl)-3-Phenylurea], the IC50 stood at 891 nM.

With `Cc1nc(N)nc(-c2cccnc2Nc2ccc(NC(=O)Nc3cccc(F)c3)nc2)n1` [Example 191, 1-(5-(3-(4-Amino-6-Methyl-1,3,5-Triazin-2-yl)Pyridin-2-Ylamino)Pyridin-2-yl)-3-(3-Fluorophenyl)Urea], the IC50 turned out to be 2130 nM. The same measure, in the same setting: to `CC(=O)Nc1ccc(Nc2ncc(Cl)cc2-c2nc(C)nc(N)n2)cn1` [Example 193, N-(5-(3-(4-Amino-6-Methyl-1,3,5-Triazin-2-yl)-5-Chloropyridin-2-Ylamino)Pyridin-2-yl)Acetamide] belongs 100 nM; to `COC(=O)Nc1ccc(Nc2ncc(Cl)cc2-c2nc(C)nc(N)n2)cn1` [Example 194, Methyl 5-(3-(4-Amino-6-Methyl-1,3,5-Triazin-2-yl)-5-Chloropyridin-2-Ylamino)Pyridin-2-Ylcarbamate], greater than 10000 nM. The same measure, in the same setting: the figure for `Cc1nc(N)nc(-c2cc(CN3CCN(S(C)(=O)=O)CC3)cnc2Nc2cc(F)cc3[nH]ncc23)n1` [Example 245, N-(3-(4-Amino-6-Methyl-1,3,5-Triazin-2-yl)-5-((4-(Methylsulfonyl)Piperazin-1-yl)Methyl)Pyridin-2-yl)-6-Fluoro-1H-Indazol-4-Amine] is 19 nM. As for `COc1ncc(Nc2ncc(C(C)(C)N3CCN(S(C)(=O)=O)CC3)cc2-c2nc(C)nc(N)n2)cc1F` [Example 280, 4-(2-(5-Fluoro-6-Methoxypyridin-3-Ylamino)-5-(2-(4-(Methylsulfonyl)Piperazin-1-yl)Propan-2-yl)Pyridin-3-yl)-6-Methyl-1,3,5-Triazin-2-Amine], the IC50 was 14 nM. On to `COc1ncc(Nc2ncc(C(N3CCN(S(C)(=O)=O)CC3)C(F)(F)F)cc2-c2nc(C)nc(N)n2)cc1F` (stereo not drawn) [Example 325, 4-(2-(5-Fluoro-6-Methoxypyridin-3-Ylamino)-5-(2,2,2-Trifluoro-1-(4-(Methylsulfonyl)Piperazin-1-yl)Ethyl)Pyridin-3-yl)-6-Methyl-1,3,5-Triazin-2-Amine], for which the IC50 came to 26 nM. Regarding `Cc1nc(N)nc(-c2cc(C3CCOCC3)cnc2Nc2cnc(Cl)c(NS(C)(=O)=O)c2)n1` [Example 328, N-(5-(3-(4-Amino-6-Methyl-1,3,5-Triazin-2-yl)-5-(Tetrahydro-2H-Pyran-4-yl)Pyridin-2-Ylamino)-2-Chloropyridin-3-yl)Methanesulfonamide], the IC50 was determined as 1 nM.

As to `COc1ncc(Nc2ncc(C3=CCOCC3)cc2-c2nc(C)nc(N)n2)cc1F` [Example 343, 4-(5-(3,6-Dihydro-2H-Pyran-4-yl)-2-(5-Fluoro-6-Methoxypyridin-3-Ylamino)Pyridin-3-yl)-6-Methyl-1,3,5-Triazin-2-Amine], the IC50 was 15 nM.

In the case of `Cc1nc(N)nc(-c2cc(C(C)(C)O)cnc2Nc2cncc(S(C)(=O)=O)c2)n1` [Example 355, 2-(5-(4-Amino-6-Methyl-1,3,5-Triazin-2-yl)-6-(5-(Methylsulfonyl)Pyridin-3-Ylamino)Pyridin-3-yl)Propan-2-ol], the IC50 was determined as 1160 nM. For `COc1ncc(Nc2ncc([C@@H](C)N3CCN(S(C)(=O)=O)C[C@H]3C)cc2-c2nc(C)nc(N)n2)cc1F` [Example 360, 4-(2-(5-Fluoro-6-Methoxypyridin-3-Ylamino)-5-((R)-1-((R)-2-Methyl-4-(Methylsulfonyl)Piperazin-1-yl)Ethyl)Pyridin-3-yl)-6-Methyl-1,3,5-Triazin-2-Amine], the IC50 was 12 nM.
